{
  "source": "paper PMC9011347",
  "about": "“Small-Molecule Inhibitors Targeting Lipolysis in Human Adipocytes” (Journal of the American Chemical Society, 2022)",
  "target": "T1, ATGL and G0S2 (Homo sapiens, UniProt Q96AD5)",
  "T1 construct": "expressed in transfected cells; host or cells: HEK293 cells; NG-497 added to the lysates",
  "T1 sequence (Q96AD5 whole entry)": "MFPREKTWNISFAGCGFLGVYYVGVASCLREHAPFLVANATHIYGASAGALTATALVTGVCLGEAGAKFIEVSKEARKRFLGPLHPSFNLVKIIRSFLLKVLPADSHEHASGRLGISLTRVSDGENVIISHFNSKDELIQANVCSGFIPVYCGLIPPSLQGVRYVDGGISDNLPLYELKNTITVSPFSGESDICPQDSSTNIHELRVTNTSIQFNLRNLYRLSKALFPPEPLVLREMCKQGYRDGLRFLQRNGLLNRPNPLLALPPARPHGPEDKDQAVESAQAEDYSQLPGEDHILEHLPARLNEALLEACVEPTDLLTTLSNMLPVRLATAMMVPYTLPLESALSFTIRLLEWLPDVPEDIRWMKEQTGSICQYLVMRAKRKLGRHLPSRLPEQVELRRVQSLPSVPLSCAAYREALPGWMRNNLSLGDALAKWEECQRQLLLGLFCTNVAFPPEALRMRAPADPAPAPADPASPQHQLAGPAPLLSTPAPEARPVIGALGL",
  "T1 sequence (P27469 whole entry partner)": "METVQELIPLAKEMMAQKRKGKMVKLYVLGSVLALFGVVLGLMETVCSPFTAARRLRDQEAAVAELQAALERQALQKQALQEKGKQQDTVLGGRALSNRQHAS",
  "assay": "Co-immunoprecipitation of ATGL and G0S2",
  "assay_type": "binding",
  "details": "NG-497 40 µM, HEK293 lysates, FLAG-ATGL and His-G0S2",
  "procedure": "Fig. S2: Effect of NG-497 on the protein-protein interaction of ATGL and G0S2 investigated by co-immunoprecipitation.\nHEK293 cells were co-transfected with FLAG-tagged ATGL and His-tagged G0S2 (both human). As controls, FLAG-tagged ATGL was co-expressed with His-LacZ, and His-tagged G0S2 with empty FLAG-vector (e-FLAG). (a) Protein expression of the indicated plasmid combinations was confirmed using anti-Xpress and anti-Flag antibodies. (b) Cell lysates were incubated with anti-FLAG M2 affinity beads in the presence or absence of NG-497 (40 µM). After extensive washing, bound proteins were eluted by boiling in SDS-containing sample buffer and subjected to Western blotting analysis. His-G0S2 was exclusively […]\nData are representative for two\n(1 picture or pasted object on this page, not shown here)\nCo-immunoprecipitation. HEK293 cells were co-transfected with the indicated plasmid combinations using Metafectene (#T020-5.0; Biontex, Germany) according to the manufacturer’s instructions. […]\nAnalysis of toxicity in HepG2 hepatocytes. […] Release of LDH into the medium was analyzed using the Cytotoxicity Detection Kit PLUS (LDH) (MilliporeSigma) according to the manufacturer’s instructions. Cytotoxicity was calculated as relative LDH release as compared to fully lysed cells. […]",
  "data": [
    {"smiles": "CCOc1ccc(-c2cc(OC)cc(C(=O)OC(C)C)n2)cc1", "note": "[NG-497]", "values": [
      {"measurement": "G0S2 binding to ATGL (co-immunoprecipitation)", "value": "increased G0S2 binding"}
    ]}
  ]
}
